Data as given in PubChem BioAssay AID330 (DTP/NCI, 2004).
Several values for one entry are separate records, joined by “and”; a condition that tells them apart may be missing. Equal entries are not always repeated. Toxic doses and inconclusive results are not listed. Peptide text beside a SMILES is read from it. * marks the point of attachment. Cbz = O=C(OCc1ccccc1)*; OtBu = CC(C)(C)O*

Test system: P388 leukemia ip, CD2F1 mice, survival T/C
Assay: NCI In Vivo Anticancer Drug Screen. Data for tumor model P388 Leukemia (intraperitoneal) in CD2F1 (CDF1) mice
Details: endpoint: median survival time, higher = longer survival
Outline: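 Mice carrying the transplanted tumor received test compound or vehicle. Survival was recorded in each group, and the value is the treated-group measurement divided by that of the vehicle-treated control group.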

[1] = dose: 100.0 mg/kg/injection, schedule: Q01DX009 (ip), vehicle: saline with Tween-80
[2] = dose: 200.0 mg/kg/injection, schedule: Q01DX009 (ip), vehicle: saline with Tween-80
[3] = dose: 400.0 mg/kg/injection, schedule: Q01DX009 (ip), vehicle: saline with Tween-80
[4] = dose: 50.0 mg/kg/injection, schedule: Q01DX005 (ip), vehicle: saline with Tween-80
[5] = dose: 100.0 mg/kg/injection, schedule: Q01DX005 (ip), vehicle: saline with Tween-80
[6] = dose: 200.0 mg/kg/injection, schedule: Q01DX005 (ip), vehicle: saline with Tween-80
[7] = dose: 25.0 mg/kg/injection, schedule: Q01DX009 (ip), vehicle: saline
[8] = dose: 50.0 mg/kg/injection, schedule: Q01DX009 (ip), vehicle: saline
[9] = dose: 50.0 mg/kg/injection, schedule: Q01DX005 (ip), vehicle: Klucel (hydroxypropylcellulose) (HPC)
[10] = dose: 100.0 mg/kg/injection, schedule: Q01DX009 (ip), vehicle: saline
[11] = dose: 200.0 mg/kg/injection, schedule: Q01DX009 (ip), vehicle: saline
[12] = dose: 50.0 mg/kg/injection, schedule: Q01DX009 (ip), vehicle: saline with Tween-80

Q: Which T/C [1] does the source give for `COc1ccc(C(=O)C(=O)c2ccc(OC)c(OC)c2)cc1OC` here?
A: 96 % of control

Q: And the T/C [2]?
A: 96 % of control

Q: And the T/C [3]?
A: 92 % of control

Q: Which T/C [4] does the source give for `CC(=O)C1(C)CCOC1=O` (centres undefined) here?
A: 100 % of control

Q: What about the T/C [5] of the same compound?
A: 100 % of control

Q: And the T/C [6]?
A: 109 % of control

Q: How did the T/C (dose: 60.0 mg/kg/injection, schedule: Q01DX005 (ip), vehicle: Klucel (hydroxypropylcellulose) (HPC)) turn out when `O=C1CC(O)C2C(=O)c3c(c(Cl)c4ccccc4c3O)C(=O)C2C1` (centres undefined) was run?
A: 94 % of control

Q: And the T/C (dose: 120.0 mg/kg/injection, schedule: Q01DX005 (ip), vehicle: Klucel (hydroxypropylcellulose) (HPC))?
A: 94 % of control

Q: What about the T/C (dose: 240.0 mg/kg/injection, schedule: Q01DX005 (ip), vehicle: Klucel (hydroxypropylcellulose) (HPC)) of the same compound?
A: 93 % of control

Q: Which T/C (dose: 12.5 mg/kg/injection, schedule: Q01DX009 (ip), vehicle: saline) does the source give for `CC(CN)c1ccccc1` (centres undefined) here?
A: 111 % of control

Q: What about the T/C [7] of the same compound?
A: 101 % of control

Q: And the T/C [8]?
A: 101 % of control and 103 % of control

Q: `Cc1cc(Cc2ccc3c(c2)OCO3)ccc1OCC(=O)O` was tested. Which T/C [9] did it give?
A: 98 % of control

Q: And the T/C (dose: 100.0 mg/kg/injection, schedule: Q01DX005 (ip), vehicle: Klucel (hydroxypropylcellulose) (HPC))?
A: 105 % of control

Q: What about the T/C (dose: 200.0 mg/kg/injection, schedule: Q01DX005 (ip), vehicle: Klucel (hydroxypropylcellulose) (HPC)) of the same compound?
A: 104 % of control

Q: What does the source list for `CCN(CC)C(=S)N/N=C(\C)c1ccccn1`?
A: T/C (dose: 6.25 mg/kg/injection, schedule: Q01DX009 (ip), vehicle: saline with Tween-80): 106 % of control; T/C (dose: 12.5 mg/kg/injection, schedule: Q01DX009 (ip), vehicle: saline with Tween-80): 89 % of control

Q: How did the T/C (dose: 50.0 mg/kg/injection, schedule: Q01DX009 (ip), vehicle: Klucel (hydroxypropylcellulose) (HPC)) turn out when `CC1=NNC(=O)C1` was run?
A: 86 % of control

Q: And the T/C (dose: 100.0 mg/kg/injection, schedule: Q01DX009 (ip), vehicle: Klucel (hydroxypropylcellulose) (HPC))?
A: 102 % of control

Q: And the T/C (dose: 200.0 mg/kg/injection, schedule: Q01DX009 (ip), vehicle: Klucel (hydroxypropylcellulose) (HPC))?
A: 94 % of control

Q: And the T/C (dose: 400.0 mg/kg/injection, schedule: Q01DX009 (ip), vehicle: Klucel (hydroxypropylcellulose) (HPC))?
A: 106 % of control

Q: How did the T/C (dose: 60.0 mg/kg/injection, schedule: Q01DX005 (ip), vehicle: saline with Tween-80) turn out when `COc1cc2c(c(C3C(=O)N(C)c4ccc(Br)cc43)c1OC)OCO2` (centres undefined) was run?
A: 95 % of control

Q: And the T/C (dose: 120.0 mg/kg/injection, schedule: Q01DX005 (ip), vehicle: saline with Tween-80)?
A: 91 % of control

Q: And the T/C (dose: 240.0 mg/kg/injection, schedule: Q01DX005 (ip), vehicle: saline with Tween-80)?
A: 98 % of control

Q: What does the source list for `CCn1c2ccccc2c2ccc(N=Cc3ccc4ccccc4c3)cc21`?
A: T/C (dose: 100.0 mg/kg/injection, schedule: Q04DX003 (ip), vehicle: saline + alcohol): 92 % of control; T/C (dose: 200.0 mg/kg/injection, schedule: Q04DX003 (ip), vehicle: saline + alcohol): 97 % of control; T/C (dose: 400.0 mg/kg/injection, schedule: Q04DX003 (ip), vehicle: saline + alcohol): 97 % of control

Q: Which T/C (dose: 12.5 mg/kg/injection, schedule: Q01DX005 (ip), vehicle: Klucel (hydroxypropylcellulose) (HPC)) does the source give for `O=C(N/N=C/c1ccco1)C(=O)Nc1cccc(C(F)(F)F)c1` here?
A: 95 % of control

Q: And the T/C (dose: 25.0 mg/kg/injection, schedule: Q01DX005 (ip), vehicle: Klucel (hydroxypropylcellulose) (HPC))?
A: 89 % of control

Q: And the T/C [9]?
A: 88 % of control and 95 % of control

Q: Which results are given for `NC(=O)c1ccccn1`?
A: T/C [7]: 108 % of control; T/C [8]: 110 % of control; T/C [10]: 99 % of control; T/C [11]: 99 % of control

Q: What does the source list for `OCCN1CN(c2ccccc2)C(=S)N(c2ccccc2)C1`?
A: T/C [12]: 97 % of control; T/C [1]: 100 % of control; T/C [2]: 93 % of control

Q: With `COc1ccccc1CC(N)c1nn[nH]n1` (centres undefined) as the compound, how does the T/C (dose: 25.0 mg/kg/injection, schedule: Q01DX009 (ip), vehicle: saline with Tween-80) read?
A: 96 % of control

Q: What about the T/C [12] of the same compound?
A: 98 % of control and 99 % of control and 101 % of control

Q: What about the T/C [1] of the same compound?
A: 104 % of control and 89 % of control and 96 % of control

Q: And the T/C [2]?
A: 91 % of control and 97 % of control

Q: And the T/C [3]?
A: 96 % of control

Q: Which results are given for `O=NNc1ccc(-c2ccccc2)cn1`?
A: T/C (dose: 6.25 mg/kg/injection, schedule: Q01DX009 (ip), vehicle: saline): 101 % of control; T/C [7]: 181 % of control; T/C [8]: 108 % of control

Q: What does the source list for `C=C1CCC2C(C)(C(=O)O)CCCC2(C)C1CCc1ccoc1` (centres undefined)?
A: T/C (dose: 12.75 mg/kg/injection, schedule: Q01DX005 (ip), vehicle: Klucel + Tween-80): 102 % of control; T/C (dose: 25.5 mg/kg/injection, schedule: Q01DX005 (ip), vehicle: Klucel + Tween-80): 96 % of control; T/C (dose: 51.0 mg/kg/injection, schedule: Q01DX005 (ip), vehicle: Klucel + Tween-80): 110 % of control; T/C (dose: 102.0 mg/kg/injection, schedule: Q01DX005 (ip), vehicle: Klucel + Tween-80): 110 % of control

Q: How did the T/C (dose: 100.0 mg/kg/injection, schedule: Q01DX001 (ip), vehicle: other) turn out when `Oc1ccccc1/C=N\Nc1ccccc1` was run?
A: 113 % of control

Q: What about the T/C (dose: 200.0 mg/kg/injection, schedule: Q01DX001 (ip), vehicle: other) of the same compound?
A: 118 % of control

Q: And the T/C (dose: 400.0 mg/kg/injection, schedule: Q01DX001 (ip), vehicle: other)?
A: 100 % of control

Q: Which results are given for `O=C(O)CC(=O)N=c1snc(Nc2ccccc2)n1-c1ccccc1`?
A: T/C (dose: 6.25 mg/kg/injection, schedule: Q01DX009 (ip), vehicle: Klucel (hydroxypropylcellulose) (HPC)): 101 % of control; T/C (dose: 12.5 mg/kg/injection, schedule: Q01DX009 (ip), vehicle: Klucel (hydroxypropylcellulose) (HPC)): 102 % of control; T/C (dose: 25.0 mg/kg/injection, schedule: Q01DX009 (ip), vehicle: Klucel (hydroxypropylcellulose) (HPC)): 99 % of control

Q: Which results are given for `O=NN(CCF)C(=O)NC1CCS(=O)(=O)CC1`?
A: T/C (dose: 1.25 mg/kg/injection, schedule: Q04DX003 (ip), vehicle: saline): 177 % of control; T/C (dose: 2.5 mg/kg/injection, schedule: Q01DX009 (ip), vehicle: saline): 220 % of control; T/C (dose: 2.5 mg/kg/injection, schedule: Q04DX003 (ip), vehicle: saline): 250 % of control; T/C (dose: 5.0 mg/kg/injection, schedule: Q01DX009 (ip), vehicle: saline): 300 % of control; T/C (dose: 5.0 mg/kg/injection, schedule: Q04DX003 (ip), vehicle: saline with Tween-80): 240 % of control; T/C (dose: 5.0 mg/kg/injection, schedule: Q04DX003 (ip), vehicle: saline): 272 % of control; T/C (dose: 6.6 mg/kg/injection, schedule: Q04DX003 (ip), vehicle: saline with Tween-80): 280 % of control; T/C (dose: 10.0 mg/kg/injection, schedule: Q01DX009 (ip), vehicle: saline): 300 % of control; T/C (dose: 10.0 mg/kg/injection, schedule: Q04DX003 (ip), vehicle: saline with Tween-80): 272 % of control and 285 % of control; T/C (dose: 15.0 mg/kg/injection, schedule: Q04DX003 (ip), vehicle: saline with Tween-80): 285 % of control

Q: With `Cc1nc2c([N+](=O)[O-])c(N(C)C)c([N+](=O)[O-])cc2[nH]1` as the compound, how does the T/C (dose: 25.0 mg/kg/injection, schedule: Q04DX003 (ip), vehicle: saline with Tween-80) read?
A: 96 % of control

Q: What about the T/C (dose: 50.0 mg/kg/injection, schedule: Q04DX003 (ip), vehicle: saline with Tween-80) of the same compound?
A: 87 % of control

Q: With `CC(Sc1ccccn1)C(=O)c1ccccc1` (centres undefined) as the compound, how does the T/C [4] read?
A: 102 % of control

Q: What about the T/C [5] of the same compound?
A: 109 % of control

Q: And the T/C [6]?
A: 102 % of control

Q: For `O=C(CCN1CCCCC1)Nc1ccc(F)cc1F`, which T/C [4] is on record?
A: 97 % of control

Q: And the T/C [5]?
A: 99 % of control

Q: What about the T/C [6] of the same compound?
A: 100 % of control

Q: `CN(C)Cc1cocc(CN(C)C)c1=O` was tested. Which T/C [8] did it give?
A: 100 % of control

Q: And the T/C [10]?
A: 98 % of control

Q: What about the T/C [11] of the same compound?
A: 103 % of control

Q: How did the T/C [4] turn out when `COCCNC(=S)SCCN(C(C)C)C(C)C` was run?
A: 104 % of control

Q: And the T/C [5]?
A: 106 % of control

Q: What does the source list for `C=CC(C)(O)CS(=O)c1ccccc1` (centres undefined)?
A: T/C (dose: 100.0 mg/kg/injection, schedule: Q04DX003 (ip), vehicle: saline): 100 % of control; T/C (dose: 200.0 mg/kg/injection, schedule: Q04DX003 (ip), vehicle: saline): 101 % of control; T/C (dose: 400.0 mg/kg/injection, schedule: Q04DX003 (ip), vehicle: saline): 108 % of control

Q: `CC(C)CC(NC(=O)C(Cc1ccccc1)NC(=O)C1CCCN1C(=O)OCc1ccccc1)C(=O)OC(C)(C)C` (stereo not drawn) (Cbz-Pro-Phe-Leu-OtBu; configuration not given here) was tested. Which T/C [4] did it give?
A: 100 % of control

Q: And the T/C [5]?
A: 100 % of control

Q: What about the T/C [6] of the same compound?
A: 91 % of control

Q: Which results are given for `CCN(CC)CCCC(C)NC(=O)c1ccc2c(c1O)C(=O)c1ccccc1C2=O` (centres undefined)?
A: T/C (dose: 1.25 mg/kg/injection, schedule: Q01DX009 (ip), vehicle: water): 100 % of control and 102 % of control; T/C (dose: 2.5 mg/kg/injection, schedule: Q01DX009 (ip), vehicle: water): 101 % of control and 105 % of control; T/C (dose: 5.0 mg/kg/injection, schedule: Q01DX009 (ip), vehicle: water): 106 % of control and 108 % of control; T/C (dose: 10.0 mg/kg/injection, schedule: Q01DX009 (ip), vehicle: water): 99 % of control and 101 % of control and 94 % of control; T/C (dose: 20.0 mg/kg/injection, schedule: Q01DX009 (ip), vehicle: water): 99 % of control and 101 % of control
